Data reported in patent US20050288347A1, “Certain triazole-based compounds, compositions, and uses thereof” (priority 2004, published 2005).
“Also recorded” adds a separate entry of the source.

test system: protein kinase; experiment: HTS ATP-utilizing enzyme assay, off-chip mobility-shift format (Caliper HTS 250); type: biochemical, human; settings: test compound 10 μM; active = activity greater than three-sigma from the mean of the predominately inactive population for that enzyme
How it was run: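 Single-point screen at 10 μM compound in HEPES pH 7.5 buffer with Triton X-100 and BSA, 2.5 h at 20–22 °C. Substrate-to-phosphopeptide ratio measured by off-chip microfluidic mobility shift; EDTA wells as 100% and DMSO wells as 0% control, hits called at three-sigma limits.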

SMILES | protein kinase against which the compound exhibits inhibitory activity (Table 3)
C=CCSc1nnc(Cn2cnc3ccccc32)n1C | HCK
O=C1c2ccccc2C(=O)N1CCSc1nnc(-c2cccc(C(F)(F)F)c2)[nH]1 | GSK3-β and PKA and GSK3-α
COc1ccccc1-n1c(SCC(O)c2ccccc2)nnc1-c1cccc(Cl)c1 (stereo not drawn) | ROCK2
COc1ccccc1-n1c(SC2Cc3ccccc3C2=O)nnc1-c1cccc(Cl)c1 (stereo not drawn) | ROCK2
COc1ccc(CCn2c(CCC3CCCC3)nnc2SCC=C(C)C)cc1OC | GSK3-β; also recorded: GSK3-α
CCOCCSc1nnc(-c2cccc(C)c2)[nH]1 | AURORA-A; also recorded: FLT-3; also recorded: GSK3-β
COc1ccccc1-n1c(SCCC(=O)O)nnc1-c1cccnc1 | AURORA-A
O=C(O)CCSc1nnc(-c2ccc(O)cc2)n1-c1cccc(Cl)c1 | GSK3-β; also recorded: GSK3-α
Cc1cc(C)nc(SCc2nnc(SCCC(=O)O)n2-c2ccccc2)n1 | CHEK2
CCCCSc1nnc(-c2cccnc2)[nH]1 | AURORA-A; also recorded: FLT-3; also recorded: c-TAK1
CC(C)=CCSc1nnc(Cc2ccccc2)n1Cc1ccc(Cl)c(Cl)c1 | c-TAK1
CC(C)=CCSc1nnc(CCC2CCCC2)n1CCCN1CCOCC1 | GSK3-α
COc1ccccc1-n1c(SCc2csc(C)n2)nnc1-c1cccc(Cl)c1 | ROCK2
CCc1nnc(SCC=C(C)C)n1Cc1ccc2c(c1)OCO2 | GSK3-β; also recorded: GSK3-α
COc1ccc(-c2nnc(SCC(=O)NNC(=O)c3ccc(Br)cc3)n2C)cc1 | CHEK2; also recorded: GSK3-β; also recorded: GSK3-α
O=C(NCCSc1nnc(-c2cccc(C(F)(F)F)c2)[nH]1)c1ccccc1 | GSK3-β; also recorded: GSK3-α; also recorded: CHEK2
CC(C)Sc1nnc(-c2ccc(NS(C)(=O)=O)cc2)n1C | CDK2-cyclinA
CCOC(=O)CCCSc1nnc(-c2ccc3[nH]c(C)c(C)c3c2)n1CC | FLT-3
Cn1c(Cn2nnc3ccccc32)nnc1SCC(=O)C1c2ccccc2CCc2ccccc21 | MAPKAPK-2
CCN(CC)S(=O)(=O)c1ccc(-c2nnc(SCC(=O)N3c4ccccc4CCc4ccccc43)n2CC)cc1 | DAPK1
Cc1cccc(OCc2nnc(SCC(=O)N3c4ccccc4CCc4ccccc43)n2C)c1C | MSK2
O=C(CSc1nnc[nH]1)N1c2ccccc2CCc2ccccc21 | LCK

More lines, now with the values ahead:

protein kinase against which the compound exhibits inhibitory activity (Table 3) | SMILES
AURORA-A | COc1ccccc1-n1c(SCC(=O)Nc2ccccc2)nnc1-c1ccccc1O
ROCK2 | COc1ccccc1-n1c(SCC(=O)c2ccc(F)cc2)nnc1-c1cccc(Cl)c1
LCK | C=C(C)Cn1c(SCC(=O)NN)nnc1-c1ccc(Br)cc1
FYN | CCn1c(SCC(=O)NNC(=O)Cc2ccccc2)nnc1-c1ccc(Cl)cc1
FYN and FLT-3 and CSK | Cn1c(SCC(=O)NNC(=O)c2ccccc2O)nnc1-c1ccccc1
AURORA-A | Cc1ccc(-n2c(SCC(=O)NNC(=O)c3ccccc3O)nnc2-c2ccccc2O)cc1
CHEK2 | COc1ccccc1-c1nnc(SCCC(=O)O)n1-c1cccc(Cl)c1
MSK1 | CCc1ccc(OCc2nnc(SCCC(=O)O)n2CC)cc1
AURORA-A | CCn1c(COc2cccc3ccccc23)nnc1SCCC(=O)O
CHEK2; also recorded: AURORA-A | COc1ccc(-n2c(SCCC(=O)O)nnc2-c2ccc(NC(=O)c3ccccc3)cc2)cc1
CDK1 | COc1ccc(-n2c(COc3ccccc3OC)nnc2SCCC(=O)O)cc1
AURORA-A | CCn1c(COc2ccc(Br)cc2)nnc1SCCC(=O)O
AURORA-A | Cc1cc(OCc2nnc(SCCC(=O)O)n2C)ccc1Cl
AKT1 | CCn1c(COc2ccc(Cl)c(C)c2)nnc1SC(C)C
AKT1 | COc1ccc(-n2c(CNc3ccc(F)cc3)nnc2SC)cc1
SYK | COc1ccc(C(=O)NNC(=O)CSc2nnc(C)n2CC2CCCO2)cc1 (stereo not drawn)

protein kinase against which the compound exhibits inhibitory activity (Table 3) | SMILES
AURORA-A | COc1ccccc1-n1c(SCC(=O)Nc2cccc(NC(=O)c3ccco3)c2)nnc1-c1ccccc1O
KIT and AURORA-A | COc1ccccc1-n1c(SCC(=O)Nc2ccc(Cl)cc2)nnc1-c1ccccc1O
SGK1 | Cn1c(SCC(=O)NN(Br)C(=O)c2ccccc2)nnc1C1CCCCC1
INSR and KIT and SYK | CCCCNC(=O)CSc1nnc(-c2ccccc2O)n1-c1ccccc1OC
AURORA-A | COCCCn1c(SCC(=O)NN(O)C(=O)c2ccccc2)nnc1-c1ccncc1
FYN | O=C(CSc1nnc(-c2ccncc2)n1-c1ccc(F)cc1)NN(O)C(=O)c1ccccc1
PDGFRR-α; also recorded: AURORA-A | O=C(CSc1nnc(-c2cccnc2)n1Cc1ccccc1)NNC(=O)c1ccc(Br)cc1
FYN and CSK | O=C(CSc1nnc(-c2ccccc2)n1Cc1ccccc1)NNC(=O)c1ccccc1O
AURORA-A | CCn1c(SCC(=O)NNC(=O)C2CCCCC2)nnc1-c1ccncc1
DAPK-1 | Cc1ccc(C(=O)NNC(=O)CSc2nnc(Cc3ccccc3)n2Cc2ccccc2)cc1
FYN and FLT-3 | COc1ccc(-c2nnc(SCC(=O)NNC(=O)c3ccccc3O)n2-c2ccccc2)cc1OC
AURORA-A; also recorded: DYRK2 | CCn1c(CNc2ccccc2Cl)nnc1SCC(=O)NNC(=O)c1ccc(OC)cc1
LCK | Cc1ccc(C(=O)NNC(=O)CSc2nnc(COc3ccc(C#N)cc3)n2-c2ccccc2)cc1
PDGFRR-α and FYN and FLT-3 | COc1ccc(NCc2nnc(SCC(=O)NNC(=O)c3ccc(C)cc3)n2C)cc1
FYN | COc1ccc(-n2c(SCC(=O)NNC(C)=O)nnc2-c2ccncc2)cc1
CHEK2 and INSR and AURORA-A | COc1cc2c(cc1NC(=O)CSc1nncn1C)oc1ccccc12
